Test results reported in PMC11677527, “Predicting Pharmacokinetics of Active Constituents in Spatholobi caulis by Using Physiologically Based Pharmacokinetic Models” (Pharmaceuticals, 2024).
Read-outs that look alike come from different tables or passages of the source.

Experiments:
[1] = Observed pharmacokinetics in rats after oral SPC (previous study); type: in vivo, rat; settings: p.o. SPC
[2] = Verification pharmacokinetic experiment in rats, SPC 60 g crude drug/kg by gavage, UFLC-MS/MS, DAS 2.0; type: in vivo, rat
Protocol: To validate the accuracy of PBPK models in predicting the pharmacokinetics of SPC constituents at different oral doses, the pharmacokinetic behavior of these four constituents from SPC in rats were analyzed by UFLC-MS/MS. The parameters were calculated using Drug and Statistics Software version 2.0, and then these validated values (Val.) were used to check the accuracy of the Calc. values and evaluated by FE.
The pharmacokinetic fitting results of rats given 60 g crude drug/kg body weight of SPC by gavage were verified by experiments. The verification experiment was conducted according to our previous pharmacokinetic study. In brief, 1.5 mL suspension of SPC was given to rats by oral administration; 300 μL blood samples from orbital venous at 0.083, 0.25, 0.5, 0.75, 1.0, 1.5, 2, 3, 4, 6, 8, and 12 h were collected and pretreated with heparin sodium. After centrifugation, the plasma samples were obtained and further processed for subsequent detection by UFLC-MS/MS; the detailed analysis method is shown in Supplementary Data (Table S1 and Figure S1). The concentration-time curve of each compound was gained, and the pharmacokinetic parameters were calculated using DAS 2.0 software (DAS 2.0, Mathematical Pharmacology Professional Committee of China, Shanghai, China). The results of these four constituents were compared with the PBPK parameters predicted in rats at an oral dose of 60 g crude drug/kg body weight of SPC.
1. The instrument and analytical conditions of UFLC-MS/MS method
4 constituents (1. 3′-methoxydadizein; 2. 8-O-methylretusin; 3. Daidzin; and 4. […]
The internal standard (IS) carbamazepine with a purity of more than 99 % was purchased from Beijing JK-chemical technology Co. Ltd., (Beijing China). Heparin sodium was gained from Tianjin biochemical pharmaceutical Co. Ltd, (Tianjin, China).
Ammonium acetate of HPLC grade, methanol and acetonitrile of LC-MS grade were purchased from Sigma (LOT# BCBK6717V, sigma-aldrich, Co., MO, USA) and Fisher (Fisher Corp., Fair lawn, NJ, USA) respectively. The experimental ultrapure water was prepared by Millipore Milli-Q ultrapure water preparation apparatus (Millipore Sigma, […]
The detailed information of Shimadzu UFLC-MS/MS 8050 liquid mass system equipped with Nexera X2UFLC liquid chromatography system and 8050 triple quadrupole mass spectrometers with an electrospray ionization source were listed in our previous study. The supporting LabSolution workstation was used for data […]
The separation without superposition of analytes in plasma sample was achieved on a Kinetex® C18 chromatographic column (100mm×2.1mm i.d.; 2.6 μm, 100 Å; Phenomenex, Inc., Torrance, CA, USA) assembled with a Phenomenex p/n AJ0-9000 C18 protection column. The mobile phase was consisted of 0.5 mM ammonium acetate in water (A) and ACN (B). The gradient elution program was selected ultimately as […]
95 % B (18.7–22 min). Column and automatic sampler temperature were set as 30 °C and 4 °C respectively. The flow rate of mobile phase was 0.35 mL/min while sample injection volume was 4 μL.
Multiple reaction monitoring (MRM) of positive or negative modes were used as scanning modes for the analytes and IS. Other essential parameters were successively optimized as: Nebulizing gas flow, 3 L/min; Heating gas flow, 10 L/min; Drying gas flow, 10 L/min; Interface temperature, 300 °C; DL temperature, 250 °C; Interface and detector voltage were each set as 3.0 kV and 1.8 kV. The detection parameters such as retention time (RT), dwell time (DT), quadrupole 1 pre-rod bias (Q1), collision energy […]
Table S1 The retention time and ion equivalent parameters of 4 constituents in rat […]
Constituents Retention Precursor Precursor Product time Pre energy Pre time (min) ion species ion ion (msec) Bias (V) Bias

[3] = tested on: Caco-2 cell monolayer; parameters: method as in PMID 36680806, PMID 26501241; settings: Caco-2 cell monolayer model; cited from earlier work
[4] = parameters: method as in PMID 34303214; settings: rats, p.o. SPC 30 g crude drug/kg; doses of 1-4: 0.062, 0.11, 0.71, 1.31 mg/kg; cited from earlier work
[5] = compartment model parameters, DAS 2.0, rats p.o. SPC 60 g crude drug/kg, Mean, 5 rats
[6] = statistical moment parameters, DAS 2.0, rats p.o. SPC 60 g crude drug/kg, Mean, 5 rats
[7] = statistical moment parameters, DAS 2.0, rats p.o. SPC 60 g crude drug/kg, Mean, 5 rats, in µg·h²/mL

time of slight secondary absorption peak [1]: 3 h | K10 [2, 5]: 6.671 h⁻¹ | K12 [2, 5]: 0.394 h⁻¹ | K21 [2, 5]: 0.474 h⁻¹ | Ka [2, 5]: 2.056 h⁻¹ | Tlag [2, 5]: 0 h | V1/F [2, 5]: 12.043 L/kg | t1/2Ka [2, 5]: 20.246 h | t1/2α [2, 5]: 34.861 h | concentration at 0.083 h ([2]; rat, plasma, oral, time 0.083 h, rats p.o. SPC 60 g crude drug/kg, doses of 1-4: 0.124, 0.22, 1.4, 2.62 mg/kg, 5 rats): 9 ng/mL | concentration at 0.25 h ([2]; rat, plasma, oral, time 0.25 h, rats p.o. SPC 60 g crude drug/kg, doses of 1-4: 0.124, 0.22, 1.4, 2.62 mg/kg, 5 rats): 22.9 ng/mL | concentration at 0.5 h ([2]; rat, plasma, oral, time 0.5 h, rats p.o. SPC 60 g crude drug/kg, doses of 1-4: 0.124, 0.22, 1.4, 2.62 mg/kg, 5 rats): 12.3 ng/mL | concentration at 0.75 h ([2]; rat, plasma, oral, time 0.75 h, rats p.o. SPC 60 g crude drug/kg, doses of 1-4: 0.124, 0.22, 1.4, 2.62 mg/kg, 5 rats): 5.23 ng/mL | concentration at 1 h ([2]; rat, plasma, oral, time 1 h, rats p.o. SPC 60 g crude drug/kg, doses of 1-4: 0.124, 0.22, 1.4, 2.62 mg/kg, 5 rats): 3.33 ng/mL | concentration at 1.5 h ([2]; rat, plasma, oral, time 1.5 h, rats p.o. SPC 60 g crude drug/kg, doses of 1-4: 0.124, 0.22, 1.4, 2.62 mg/kg, 5 rats): 1.97 ng/mL | concentration at 2 h ([2]; rat, plasma, oral, time 2 h, rats p.o. SPC 60 g crude drug/kg, doses of 1-4: 0.124, 0.22, 1.4, 2.62 mg/kg, 5 rats): 0.809 ng/mL | concentration at 3 h ([2]; rat, plasma, oral, time 3 h, rats p.o. SPC 60 g crude drug/kg, doses of 1-4: 0.124, 0.22, 1.4, 2.62 mg/kg, 5 rats): 0.809 ng/mL | concentration at 4 h ([2]; rat, plasma, oral, time 4 h, rats p.o. SPC 60 g crude drug/kg, doses of 1-4: 0.124, 0.22, 1.4, 2.62 mg/kg, 5 rats): 0.409 ng/mL | concentration at 6 h ([2]; rat, plasma, oral, time 6 h, rats p.o. SPC 60 g crude drug/kg, doses of 1-4: 0.124, 0.22, 1.4, 2.62 mg/kg, 5 rats): 0.445 ng/mL | concentration at 8 h ([2]; rat, plasma, oral, time 8 h, rats p.o. SPC 60 g crude drug/kg, doses of 1-4: 0.124, 0.22, 1.4, 2.62 mg/kg, 5 rats): 0.161 ng/mL | AUC(0-t) ([2]; rat, plasma, po, 0.22 mg/kg, compartment model parameters, DAS 2.0, rats p.o. SPC 60 g crude drug/kg, Mean, 5 rats, read-out: AUC(0-t)): 19.8 ng·h/mL | AUC(0-inf) ([2]; rat, plasma, po, 0.22 mg/kg, compartment model parameters, DAS 2.0, rats p.o. SPC 60 g crude drug/kg, Mean, 5 rats, read-out: AUC(0-∞)): 22.4 ng·h/mL | CL/F ([2]; rat, plasma, po, 0.22 mg/kg, compartment model parameters, DAS 2.0, rats p.o. SPC 60 g crude drug/kg, Mean, 5 rats, read-out: CL/F (converted)): 209 mL/min/kg | half-life ([2]; rat, plasma, po, 0.22 mg/kg, compartment model parameters, DAS 2.0, rats p.o. SPC 60 g crude drug/kg, Mean, 5 rats, read-out: t1/2β (converted)): 35.4 h | AUC(0-t) ([2]; rat, plasma, po, 0.22 mg/kg, statistical moment parameters, DAS 2.0, rats p.o. SPC 60 g crude drug/kg, Mean, 5 rats, read-out: AUC(0-t)): 15.3 ng·h/mL | AUC(0-inf) ([2]; rat, plasma, po, 0.22 mg/kg, statistical moment parameters, DAS 2.0, rats p.o. SPC 60 g crude drug/kg, Mean, 5 rats, read-out: AUC(0-∞)): 15.5 ng·h/mL | CL/F ([2]; rat, plasma, po, 0.22 mg/kg, statistical moment parameters, DAS 2.0, rats p.o. SPC 60 g crude drug/kg, Mean, 5 rats, read-out: CLz/F (converted)): 238 mL/min/kg | Cmax ([2]; rat, plasma, po, 0.22 mg/kg, statistical moment parameters, DAS 2.0, rats p.o. SPC 60 g crude drug/kg, Mean, 5 rats, read-out: Cmax): 25.3 ng/mL | MRT last ([2]; rat, plasma, po, 0.22 mg/kg, statistical moment parameters, DAS 2.0, rats p.o. SPC 60 g crude drug/kg, Mean, 5 rats, read-out: MRT(0-t)): 1.01 h | MRT inf ([2]; rat, plasma, po, 0.22 mg/kg, statistical moment parameters, DAS 2.0, rats p.o. SPC 60 g crude drug/kg, Mean, 5 rats, read-out: MRT(0-∞)): 1.3 h | Tmax ([2]; rat, plasma, po, 0.22 mg/kg, statistical moment parameters, DAS 2.0, rats p.o. SPC 60 g crude drug/kg, Mean, 5 rats, read-out: Tmax): 0.25 h | Vd/F ([2]; rat, plasma, po, 0.22 mg/kg, statistical moment parameters, DAS 2.0, rats p.o. SPC 60 g crude drug/kg, Mean, 5 rats, read-out: Vz/F): 22.1 L/kg | half-life ([2]; rat, plasma, po, 0.22 mg/kg, statistical moment parameters, DAS 2.0, rats p.o. SPC 60 g crude drug/kg, Mean, 5 rats, read-out: t1/2z (converted)): 1.07 h | AUC(0-t) ([2]; rat, plasma, po, 2.62 mg/kg, rats, p.o. SPC 60 g crude drug/kg, doses of 1-4: 0.124, 0.22, 1.42, 2.62 mg/kg, n = 5, read-out: AUC0→t Val.): 15.3 ng·h/mL | AUC(0-inf) ([2]; rat, plasma, po, 2.62 mg/kg, rats, p.o. SPC 60 g crude drug/kg, doses of 1-4: 0.124, 0.22, 1.42, 2.62 mg/kg, n = 5, read-out: AUC0→∞ Val.): 15.5 ng·h/mL | Tmax ([2]; rat, plasma, po, rats, p.o. SPC 60 g crude drug/kg, doses of 1-4: 0.124, 0.22, 1.42, 2.62 mg/kg, n = 5, read-out: Tmax Val.): 0.25 h | Cz [2, 6]: 0.107 µg/L | VRT(0-t) [2, 6]: 1.65 h^2 | VRT(0-∞) [2, 6]: 3.316 h^2 | elimination rate constant [2, 6]: 0.675 h⁻¹ | AUMC(0-t) [2, 7]: 15.37 | AUMC(0-∞) [2, 7]: 20.163
Structure (SMILES): COc1ccc(-c2coc3c(OC)c(O)ccc3c2=O)cc1 [Constituent 2, 8-O-methylretusin]
Papp [3]: 24.8 ×10⁻⁶ cm/s | AUC0→t Obs. [4]: 9.7 ng·h/mL | AUC0→∞ Obs. [4]: 11.5 ng·h/mL | Cmax Obs. [4]: 13.6 ng/mL
